# Earlier results as cited in patent publication US20060182790A1, “Dermal medicaments application enhancer” (priority 2005, published 2006).
compound,measurement,setting,value
"Cl.NCC(=O)CCC(=O)O [ALA HCl, 5-amino-4-oxopentanoic acid hydrochloride]",solubility in chloroform,chloroform,practically insoluble
same,solubility in ethanol,ethanol,slightly soluble
same,solubility in hexane,hexane,practically insoluble
same,solubility in methanol,methanol,slightly soluble
same,solubility in mineral oil,mineral oil,practically insoluble
same,solubility in water,water,very soluble
